Results on two molecules are retold here after publication PMC11879792 (Frontiers in Pharmacology, 2025).

On the set-up of data set [1]: method as in Diasio and Harris, 1989. To be noted: parenteral administration of 5-FU; approximately; ref Diasio and Harris, 1989; cited from earlier work.
Data set [2] in a line: Single-dose, two-cycle crossover PK/bioequivalence trial of S-1 capsules, fasting. The data set is classed as in vivo, Chinese cancer patients. To be noted: human, plasma, oral, 100 mg; fasting conditions. The text has this: This study, a multicenter, randomized, open-label, single-dose, two-cycle crossover investigation, was distinctly divided into fasting and fed trials. Each subject received either the test or reference formulation in a separate cycle. Each cycle consisted of a 4-day inpatient phase, followed by a 7-day washout period between cycles to ensure that any residual effects from the previous formulation had fully dissipated before the initiation of the next cycle. To avoid the residual effects of fasting or feeding that could influence the results, the fasting and fed trials each enrolled 60 subjects. Subjects were randomly allocated to one of the two treatment sequences, namely, test-reference or reference-test, in a 1:1 ratio. All eligible subjects were admitted to the clinical ward 1 day prior to drug administration, adhering to a minimum fasting period of 10 h before drug intake. In the fasting trial, subjects were required to fast. Subsequently, they ingested a single dose comprising two capsules (50 mg each) of either the test or reference formulation, accompanied by 240 mL of warm water. […]
OXO was determined in blood, which was performed under the following conditions: the aqueous solution containing 5 mM ammonium acetate (mobile phase A) and acetonitrile (mobile phase B). […]

As for `O=c1[nH]cc(F)c(=O)[nH]1` [5-FU, 5-fluorouracil], the half-life in data set [1] was 8 to 20 min.
Turning to `Oc1cc(O)c(Cl)cn1` [CDHP, gimeracil], the Tmax in data set [2] was approximately 1 h.
